The values that follow are results of earlier work, collected in patent US12472272B2, “Radiolabelled compounds for diagnosis or treatment of prostate-specific membrane antigen- expressing cancer” (PROVINCIAL HEALTH SERVICES AUTHORITY, priority 2019, dated 2025).

Data set [1] concerns metastatic prostate cancer. The conditions noted are these: cited from earlier work.
The test system of another data set is tumor. The conditions noted are these: Kuo et al. 2018, cited from earlier work.

Take `O=C([O-])CN1CCN(CC(=O)[O-])CCN(CC(=O)NCC2CCC(C(=O)N[C@@H](Cc3ccc4ccccc4c3)C(=O)NCCCC[C@H](NC(=O)N[C@@H](CCC(=O)O)C(=O)O)C(=O)O)CC2)CCN(CC(=O)[O-])CC1.[177Lu+3]` (stereo partly shown) [^177Lu-PSMA-617]: in data set [1] (human, in vivo), the complete response rate is listed as below 7%, the “patients with progressive disease after treatment” value is listed as “up to 33%” and the side effects result is recorded as “without severe side effects”. The “patients having >50% reduction in PSA levels” value in data set [1] (metastatic prostate cancer) was 32-60%. Also, in data set [1] (phase 2 Australian study, patients with measurable nodal or visceral disease), the objective response was 82%. For the same compound, the tumor uptake in the data set on tumor (120 h post-injection) is around 8 % ID/g. In addition, the peaked tumor uptake in the data set on tumor (reported previously) is reported as around 15 % ID/g.
